Experimental data taken from US11414677B2, “Methods and compositions for performing continuous directed evolution” (Massachusetts Institute of Technology, priority 2017, dated 2022).

What was measured:
[1] = test system: HEK293A cells; experiment: Resazurin assay to assess acute toxicity of common tissue culture antibiotics; assay type: cell-based, human; conditions: two-day treatment
Experimental: FIGS. 46A-46D. Resazurin assay to assess acute toxicity of common tissue culture antibiotics. HEK293A cells were treated for two days with either G418 (FIG. 46A), puromycin (FIG. 46B), blasticidin (FIG. 46C), or hygromycin (FIG. 46D), and cell viability was analyzed by resazurin fluorescence.
A 96-well plate was seeded with HEK293A cells (˜15,000) and treated with either puromycin HCl (Corning), Hygromycin B (Thermo Fisher), Blasticidin S HCl (Thermo Fisher), or G418 (Enzo). Two days later, 10 μL of 0.1 mg/mL resazurin (MilliporeSigma) was added and incubated for 1.5 h. Media was transferred to a fresh 96-well plate and fluorescence was analyzed on a Bio-Tek Synergy H1 Hybrid Microplate Reader.

[2] = test system: RFP.ΔAdPol.adenovirus; experiment: Time course of antibiotic inhibition of adenoviral replication; assay type: cell-based, Adenovirus type 5; conditions: treatment initiated 24 h post-infection
Source text: FIGS. 47A-47B. Time-course of antibiotic-mediated inhibition of adenoviral infection. HEK293A cells expressing wild-type AdPol were infected with RFP.ΔAdPol.adenovirus and treated with either a) puromycin, or b) blasticidin at various time points post-infection (h.p.i.=hours post-infection). After 2 days, the infections were harvested and titered by flow cytometry. Titers are given in infectious units per milliliter (IU/mL), defined as the volume of adenoviral supernatant required to induce fluorescence in a cell as analyzed by flow cytometry. Dashed line represents the limit of detection (L.O.D) of the assay. Titers below this limit are inaccurate due to the percentage of infected cells being below the 1% error threshold of flow cytometry.
RFP.ΔAdPol.adenovirus (TABLE 16) was used to infect a 24-well plate of wild-type AdPol cells (150,000 cells/well) (TABLE 17) at MOI=1, and either blasticidin or puromycin was added at various time points following the infection. Viral supernatants were harvested ˜48 h post-infection, and titered by flow cytometry as described above.

[3] = test system: ΔAdPol.adenovirus encoding either tTA or RFP; experiment: tTA-induced resistance to antibiotic inhibition of adenoviral replication; assay type: cell-based, Adenovirus type 5; conditions: treatment 10 h post-infection
Experimental: FIGS. 48A-48D. tTA-induced resistance to antibiotic mediated inhibition of adenoviral infection. Either wild-type AdPol cells, TRE3G.puroR cells, or TRE3G.blastR cells were infected with ΔAdPol.adenovirus encoding either tTA (+tTA) or RFP (−tTA). Ten hours post-infection, wild-type AdPol cells were treated with either puromycin (FIG. 48A) or (FIG. 48B) blasticidin, TRE3G.puroR cells were treated with puromycin (FIG. 48C), and TRE3G.blastR cells were treated with blasticidin (FIG. 48D). After 2, days, the infections were harvested and titered by flow cytometry. Titers are given in infectious units per milliliter (IU/mL), defined as the volume of adenoviral supernatant required to induce fluorescence in a cell as analyzed by flow cytometry. Dashed line represents the limit of detection (L.O.D) of the assay. Titers below this limit are inaccurate owing to the percentage of infected cells being below the 1% error threshold of flow cytometry.
Either RFP.ΔAdPol.adenovirus, or tTA.mCherry.ΔAdPol.adenovirus (TABLE 16) was used to infect a 24-well plate of either wild-type AdPol cells, TRE3G.puroR cells, or TRE3G.blastR cells (150,000 cells/well) (TABLE 17) at MOI=1, and either puromycin or blasticidin was added 10 h post-infection. Viral supernatants were harvested ˜48 h post-infection, and titered by flow cytometry as described above.

[4] = test system: 1:10 mixture of tTA.mCherry.ΔAdPol.adenovirus and CFP.GFP.ΔAdPol.adenovirus; experiment: Enrichment of tTA-expressing adenovirus by blasticidin selection in TRE3G.blastR cells; assay type: cell-based, Adenovirus type 5; conditions: 20 μM blasticidin, added 10 h post-infection
Experimental: FIG. 49. Enrichment of adenoviruses encoding positive BOI variants by antibiotic selection. TRE3G.blastR cells were infected with a 1:10 mixture of ΔAdPol.adenovirus encoding either tTA (+tTA) or CFP (−tTA) and treated with blasticidin 10 h post-infection. Two days post-infection, adenoviruses were harvested and titered by flow cytometry. Titers are given in infectious units per milliliter (IU/mL), defined as the volume of adenoviral supernatant required to induce fluorescence in a cell as analyzed by flow cytometry. Dashed line represents the limit of detection (L.O.D) of the assay. Titers below this limit are inaccurate due to the percentage of infected cells being below the 1% error threshold of flow cytometry.
A 1:10 mixture of tTA.mCherry.ΔAdPol.adenovirus and CFP.GFP.ΔAdPol.adenovirus (TABLE 16) was used to infect a 24-well plate of TRE3G.blastR cells (150,000 cells/well) (TABLE 17) at MOI=0.7, and blasticidin was added 10 h post-infection. Viral supernatants were harvested ˜48 h post-infection, and titered by flow cytometry as described above.

[5] = test system: tTAwt.mCherry adenovirus; assay type: cell-based, Adenovirus type 5
Experimental: FIGS. 21A-21C. FIG. 21A. […] HEK293A cells stably encoding the gene for adenoviral protease (AdProt) under control of the endogenous tTA operator are infected by an initial ratio of 1:100 or 1:1,000 tTAwt.mCherry to tTAmut.GFP viruses. Viral media was serially passaged onto a new plate of cells for three rounds. The viral populations were then determined via flow cytometry. FIG. 21B. Quantification of flow cytometry data from the competition experiment. […] The initial ratio of the 1:1,000 sample (labeled N.D.; not detectable) was not experimentally quantifiable owing to the low amount of tTAwt.mCherry adenovirus present, and was therefore derived by dilution of the 1:100 initial ratio. For raw flow cytometry data, see FIG. 26 and FIG. 27. FIG. 21C. […]
Adenoviral titers were determined through flow cytometry. […] 2-3 days post-infection, cells were washed once with media, stained with 0.2 μg/mL DAPI, and then analyzed on a BD LSR II Analyzer for fluorescent protein expression. Infectious titers were determined by measuring the percentage of cells infected by a known volume of virus. To minimize counting cells that were infected by more than one virus and to minimize any background fluorescence, data were only considered if they fell within the linear range, which typically encompassed samples where 1-10% of cells were infected. […]

[6] = test system: tTAwt.mCherry adenovirus; experiment: Doxycycline dose response of tTAwt.mCherry adenovirus titer in TRE3G.AdProt cells; assay type: cell-based, Adenovirus type 5; conditions: synchronous infection, various dox concentrations
Experimental: FIG. 36. Dose response of tTA-mCherry titer when treated with doxycycline. […] Titer is given in “infectious units per mL” (IU/mL), which is defined as the number of viruses per mL that are able to elicit a fluorescent signal in cells when analyzed by flow cytometry.
A semi-confluent dish of TRE3G.AdProt cells (˜160,000 cells) (TABLE 13) was infected with tTAwt. mCherry adenovirus (multiplicity of infection ˜2.5) (TABLE 12). After 3 h, the cells were washed twice, and fresh tet-approved media (Takara Bio) supplemented with various concentrations of dox was added. 5 days later, the virus lysates were harvested and viral titers were analyzed by flow cytometry.

[7] = test system: AdGLΔPol adenoviral genome; conditions: high fidelity deep sequencing by Sanjuán and co-workers (Risso-Ballester et al. 2016); cited from earlier work

## CN(CC[C@H](N)CC(=O)N[C@H]1C=C[C@H](n2ccc(N)nc2=O)O[C@@H]1C(=O)O)C(=N)N [blasticidin]
[1]
  dynamic range of inhibitory concentrations: over two orders of magnitude
[1]; various concentrations
  acute toxicity (cell viability by resazurin fluorescence): completely toxic
[2]
  inhibition of adenoviral replication: Neither puromycin nor blasticidin were able to inhibit adenoviral replication
[3]; TRE3G.blastR cell line
  effect on RFP.ΔAdPol.adenovirus: still inhibited
  effect on tTA.ΔAdPol.adenovirus: completely resistant to blasticidin treatment
[3]; wild-type AdPol cell line
  effect on ΔAdPol.adenovirus replication: inhibited both RFP-expressing and tTA-expressing ΔAdPol.adenovirus replication
[4]
  drop of CFP.ΔAdPol.adenovirus titer: over 100 fold
  tTA.mCherry.ΔAdPol.adenovirus titer: remained steady

## C[C@H]1c2cccc(O)c2C(=O)C2=C(O)[C@]3(O)C(=O)C(C(N)=O)=C(O)[C@@H](N(C)C)[C@@H]3[C@@H](O)[C@@H]21 [dox, doxycycline]
[5]
  decrease in viral titer: ~10 fold
[6]
  modulation of adenoviral titers: ~10 fold

B1: AdPol: high fidelity wild-type adenovirus type-5 DNA polymerase (protein, UniProt P04495 1-1198, looked up)
DNA polymerase: MALVQAHRARRLHAEAPDSGDQPPRRRVRQQPTRAAPAPARARRRRAPAPSPGGSGAPPTSGGSPASPLLDASSKDTPAAHRPPRGTVVAPRGCGLLQAIDAATNQPLEIRYHLDLARALTRLCEVNLQELPPDLTPRELQTMDSSHLRDVVIKLRPPRADIWTLGSRGVVVRSTVTPLEQPDGQGQAAEVEDHQPNPPGEGLKFPLCFLVRGRQVNLVQDVQPVHRCQYCARFYKSQHECSARRRDFYFHHINSHSSNWWREIQFFPIGSHPRTERLFVTYDVETYTWMGAFGKQLVPFMLVMKFGGDEPLVTAARDLAANLGWDRWEQDPLTFYCITPEKMAIGRQFRTFRDHLQMLMARDLWSSFVASNPHLADWALSEHGLSSPEELTYEELKKLPSIKGIPRFLELYIVGHNINGFDEIVLAAQVINNRSEVPGPFRITRNFMPRAGKILFNDVTFALPNPRSKKRTDFLLWEQGGCDDTDFKYQYLKVMVRDTFALTHTSLRKAAQAYALPVEKGCCAYQAVNQFYMLGSYRSEADGFPIQEYWKDREEFVLNRELWKKKGQDKYDIIKETLDYCALDVQVTAELVNKLRDSYASFVRDAVGLTDASFNVFQRPTISSNSHAIFRQIVFRAEQPARSNLGPDLLAPSHELYDYVRASIRGGRCYPTYLGILREPLYVYDICGMYASALTHPMPWGPPLNPYERALAARAWQQALDLQGCKIDYFDARLLPGVFTVDADPPDETQLDPLPPFCSRKGGRLCWTNERLRGEVATSVDLVTLHNRGWRVHLVPDERTTVFPEWRCVAREYVQLNIAAKERADRDKNQTLRSIAKLLSNALYGSFATKLDNKKIVFSDQMDAATLKGITAGQVNIKSSSFLETDNLSAEVMPAFQREYSPQQLALADSDAEESEDERAPTPFYSPPSGTPGHVAYTYKPITFLDAEEGDMCLHTLERVDPLVDNDRYPSHLASFVLAWTRAFVSEWSEFLYEEDRGTPLEDRPLKSVYGDTDSLFVTERGHRLMETRGKKRIKKHGGNLVFDPERPELTWLVECETVCGACGADAYSPESVFLAPKLYALKSLHCPSCGASSKGKLRAKGHAAEGLDYDTMVKCYLADAQGEDRQRFSTSRTSLKRTLASAQPGAHPFTVTQTTLTRTLRPWKDMTLARLDEHRLLPYSESRPNPRNEEICWIEMP
[7]
  estimated mutation rate: ~1.3×10^−7 mutations per base per viral passage
